Values of other authors in US20070162983A1, “Diagnostic and therapeutic use of the human sgpl1 gene and protein for neurodegenerative diseases” (Evotec NeuroSciences GmbH, priority 2003, published 2007).

Assays:
SGPL1 = details: known specific inhibitors of SGPL1 activity; for IC50: read-out: IC50, inhibition of SGPL1 activity
[1] = dogs, estimated (Tosaka et al., Stroke 2001)

| Compound | IC50 (SGPL1) [µM] | also measured |
| --- | --- | --- |
| CCCC[C@H](C)[C@H](O)[C@H](O)C[C@H](C)C[C@@H](O)CCCC[C@@H](O)C[C@H](O)[C@H](C)N | 20 | – |
| 2-vinyl analog of sphinganine phosphate | 2.4 | – |
| CCCCCCCCCCCCCCC[C@H](O)[C@@H](N)COP(=O)(O)O (single isomer, unassigned) [2D,3L-isomer of sphinganine phosphate] | – | Ki (SGPL1; read-out: Ki, inhibition of SGPL1 activity): 9.7 µM |
| CCCCCCCCCCCCC/C=C/[C@@H](O)[C@@H](N)COP(=O)(O)O [S1P, sphingosine-1-phosphate] | – | half-life in cerebrospinal fluid (CSF) [1]: approximately 10 minutes |
